Reference: patent US9447069B2, “ROR modulators and their uses” (INNOV17 LLC, priority 2012, dated 2016)

Key:
IL-17A = assay: TH17 cytokine inhibition measured by ELISA (IL-17A); type: cell-based; conditions: 120 h; human TH17 cells, 5 days differentiation, ELISA of supernatants, 0.1% DMSO
Experimental: (§1) Peripheral blood mononuclear cells (PBMCs) were sourced from freshly prepared leukocyte enriched plasma (buffy coat) from healthy volunteers from which PBMCs were isolated by density gradient centrifugation using Ficoll-Paque™ PLUS (GE Healthcare). Naïve CD4+ T cells were isolated using the Naïve CD4+ T cell Isolation Kit II (Miltenyi Biotec) as per manufacturer's instructions. CD4+ T cells were plated at 5×10^4 cells/well in 96 well plates pre-coated with immobilized human (h)-αCD3 antibody (eBioscience) then differentiated to TH17 cells using h-αCD28, h-αIFN-γ, h-αIL-4, h-IL-6, h-IL-23, h-IL-1β, h-TGF-β1 (eBioscience) and maintained in a cell culture incubator at 37° C. with 5% CO2 in TexMACS Medium (Miltenyi Biotec) supplemented with 1% Penicillin/Streptomycin (Lonza) over 5 days.
Human CD4+ T cells were differentiated to TH17 cells as described in the presence or absence of various concentrations of compounds in a final concentration of 0.1% DMSO in TexMACS medium. Supernatants were collected and stored at −20° C. until they were to be assayed for IL-17A, IL-17F, IL-17AF, IL-21 and/or IL-22 levels as determined by Ready-Set-Go ELISA kits (eBioscience) as per manufacturer's instructions. Endpoint absorbance was read at 450 nm and 570 nm according to manufacturer's instructions (eBioscience) using a microplate reader (Perkin Elmer). The percentage of cytokine inhibition was calculated with reference to DMSO treated cells and the IC50s were determined by GraphPad Prism software and presented in the table below.

[1] = TH17 cell viability (Prestoblue); type: cell-based; conditions: human; 1 μM compound, after 5 days, percentage of DMSO treated cells
Experimental: as §1
Cells were assayed for viability in the presence or absence of 1 μM compound using Prestoblue® Cell Viability Reagent (Life Technologies) as per manufacturer's instructions after 30 minutes incubation of TH17 cells with reagent. Absorbance was measured at 570 nm and 600 nm using a microplate reader (Perkin Elmer) and data were analyzed as per manufacturer's instructions. Cell viability was determined after 5 days and expressed as a percentage of DMSO treated cells.

TH17 cells = assay: TH17 cellular proliferation (Prestoblue); type: cell-based; conditions: Homo sapiens, 120 h; 3 μM compound, after 5 day TH17 differentiation, relative to DMSO treated TH17 cells; read-out: % change in TH17 cell number
Experimental: as §1
Cellular proliferation was assessed in the presence or absence of 3 μM compound using Prestoblue® Cell Viability Reagent (Life Technologies) as per manufacturer's instructions using absorbance as the output measured by a microplate reader (Perkin Elmer) after 30 minutes of incubation. A standard curve developed by plotting varying cell numbers versus absorbance was used to assess differences in cellular proliferation between compound treated or untreated cells after the 5 day TH17 differentiation period.

IL-23R = assay: Real-Time qRT-PCR gene expression in TH17 cells (IL-23R); type: cell-based, human; set-up: key: A: No change in gene expression observed relative to DMSO treated Th17 cells; B: Decreased gene expression observed relative to DMSO treated Th17 cells; C: Increased gene expression observed relative to DMSO treated Th17 cells; conditions: normalized to six reference genes
Experimental: as §1
RNA was isolated from TH17 cells and cDNA was synthesized using the Verso cDNA kit (Thermo Scientific) as per manufacturer's instructions. IL-17A, IL-17F, IL-21, IL-22, G-CSF, IL-23R and FOXP3 gene expression were determined for compound treated and untreated TH17 cell samples using Solaris qPCR Gene expression assays (Thermo Scientific) with an iCycler iQ Real-Time PCR Detection System (Bio-Rad). Individual gene expression was normalized to a panel of six reference genes (ACTB, TBP, HPRT1, PGK1, TFRC and PPIA) (Thermo Scientific) and analyzed by REST 2009 (Qiagen) in accordance to MIQE guidelines (Bustin et al. (2009) Clin. Chem, 55:611-622). The effects of compounds on TH17 cytokine gene expression are presented as fold change in mRNA levels of compound treated TH17 cells relative to DMSO treated cells in the table below.

RORγ LBD [2] = biological target: T1, RORγ LBD (Homo sapiens, UniProt P51449); assay: TR-FRET D22 co-activator displacement from RORγ LBD; type: biochemical; set-up: purified GST-tagged (i) RORγ LBD or (ii) RORα LBD; purchased Life Technologies
T1 sequence (P51449 269-508 limits assumed): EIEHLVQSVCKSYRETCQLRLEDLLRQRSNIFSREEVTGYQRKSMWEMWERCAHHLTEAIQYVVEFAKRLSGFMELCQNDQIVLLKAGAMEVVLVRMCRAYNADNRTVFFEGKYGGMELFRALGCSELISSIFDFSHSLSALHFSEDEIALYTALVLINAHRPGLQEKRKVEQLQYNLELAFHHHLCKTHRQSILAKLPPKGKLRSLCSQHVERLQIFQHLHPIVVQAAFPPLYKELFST
Excerpt: (§2) The Time-Resolved Fluorescence Resonance Energy Transfer (TR-FRET) assay kit (Life Technologies) was used to measure compound efficacy to disrupt or enhance ligand-mediated interaction of the co-activator and co-repressor peptides with the purified GST-tagged (i) RORγ LBD or (ii) RORα LBD. The RORγ LBD and RORα LBD each have a basal level of interaction with the co-activator D22 or co-repressor NCoR1-D2 in the absence of ligand, thus it is possible to identify compounds that inhibit or induce RORγ and/or RORα co-activator/co-repressor interactions, thus determining RORα, RORγ, or RORα/RORγ compound selectivity. The assay was performed as per manufacturer's instructions and TR-FRET was assessed 2 and 20 hours post-assay initiation. Compounds were identified to (i) have no impact on either co-activator displacement or […] from the assessed LBD (ii) promote co-activator displacement from the assessed LBD (iii) promote co-repressor recruitment to the assessed LBD or (iv) concurrently promote co-activator displacement from the assessed LBD and co-repressor recruitment to the assessed LBD.

RORγ LBD [3] = biological target: T1, RORγ LBD; assay: TR-FRET NCoR1-D2 co-repressor recruitment to RORγ LBD; type: biochemical; set-up: purified GST-tagged (i) RORγ LBD or (ii) RORα LBD; purchased Life Technologies
Excerpt: as §2

[4] = TR-FRET assessed 2 hr post-assay initiation, read-out: RORγ EC50 D22 co-activator displacement, 2 hr
[5] = TR-FRET assessed 20 hr post-assay initiation, read-out: RORγ EC50 D22 co-activator displacement, 20 hr
[6] = TR-FRET assessed 2 hr post-assay initiation, read-out: RORγ EC50 NCoR1-D2 co-repressor recruitment, 2 hr
[7] = TR-FRET assessed 20 hr post-assay initiation, read-out: RORγ EC50 NCoR1-D2 co-repressor recruitment, 20 hr

| IC50 (IL-17A) | EC50 (RORγ LBD [2]; [4]) | EC50 (RORγ LBD [2]; [5]) | EC50 (RORγ LBD [3]; [6]) | EC50 (RORγ LBD [3]; [7]) | Structure (SMILES) | viability at 5 days, 1 µM [1] | inhibition at 3 µM (TH17 cells) | Fold change in mRNA levels of compound treated TH17 cells relative to DMSO treated cells, IL-23R (IL-23R) |
| --- | --- | --- | --- | --- | --- | --- | --- | --- |
| < 10 µM | < 30 µM | < 30 µM | > 30 µM | < 30 µM | Cc1cc(-c2ccc3c(c2)CCCN3Cc2ccc(C(O)(C(F)(F)F)C(F)(F)F)cc2)[nH]n1 [Example 1, 1,1,1,3,3,3-hexafluoro-2-(4-((6-(3-methyl-1H-pyrazol-5-yl)-3,4-dihydroquinolin-1(2H)-yl)methyl)phenyl)propan-2-ol] | > 80% | > 50% | A |
| < 10 µM | < 30 µM | < 30 µM | < 30 µM | < 30 µM | OC(c1ccc(CN2CCCc3cc(-c4cn[nH]c4)ccc32)cc1)(C(F)(F)F)C(F)(F)F [Example 2, 2-(4-((6-(1H-pyrazol-4-yl)-3,4-dihydroquinolin-1(2H)-yl)methyl)phenyl)-1,1,1,3,3,3-hexafluoropropan-2-ol] | > 80% | > 50% | A |
| < 10 µM | < 30 µM | > 30 µM | > 30 µM | < 30 µM | Cc1n[nH]c(-c2ccc3c(c2)CCCN3Cc2ccc(C(O)(C(F)(F)F)C(F)(F)F)cc2)n1 [Example 3, 1,1,1,3,3,3-hexafluoro-2-(4-((6-(3-methyl-1H-1,2,4-triazol-5-yl)-3,4-dihydroquinolin-1(2H)-yl)methyl)phenyl)propan-2-ol] | > 80% | > 50% | A |
| < 10 µM | > 30 µM | > 30 µM | > 30 µM | < 30 µM | Cc1cc(-c2ccc3c(c2)CCC(=O)N3Cc2ccc(C(O)(C(F)(F)F)C(F)(F)F)cc2)[nH]n1 [Example 4, 1-(4-(1,1,1,3,3,3-hexafluoro-2-hydroxypropan-2-yl)benzyl)-6-(3-methyl-1H-pyrazol-5-yl)-3,4-dihydroquinolin-2(1H)-one] | > 80% | ≤ 50% | A |
| < 10 µM | > 30 µM | < 30 µM | > 30 µM | < 30 µM | O=C1CCc2cc(-c3cn[nH]c3)ccc2N1Cc1ccc(C(O)(C(F)(F)F)C(F)(F)F)cc1 [Example 5, 1-(4-(1,1,1,3,3,3-hexafluoro-2-hydroxypropan-2-yl)benzyl)-6-(1H-pyrazol-4-yl)-3,4-dihydroquinolin-2(1H)-one] | < 80% | ≤ 50% | A |
| < 10 µM | < 30 µM | < 30 µM | > 30 µM | > 30 µM | Cc1n[nH]c(-c2ccc3c(c2)CCC(=O)N3Cc2ccc(C(O)(C(F)(F)F)C(F)(F)F)cc2)n1 [Example 6, 1-(4-(1,1,1,3,3,3-hexafluoro-2-hydroxypropan-2-yl)benzyl)-6-(3-methyl-1H-1,2,4-triazol-5-yl)-3,4-dihydroquinolin-2(1H)-one] | > 80% | ≤ 50% | C |
